The results in this text go back to PMC7736581, “Activation of the IRE1 RNase through remodeling of the kinase front pocket by ATP-competitive ligands” (Nature Communications, 2020).

Test [1] has as its target T1, Srm (Homo sapiens, UniProt Q9H3Y6).
T1 construct: gene SRMS
The test is described as follows: biochemical. The arrangement: Invitrogen kinase panel: Z'Lyte activity (ATP at Km) or LanthaScreen competitive ATP-site binding, percent inhibition.

In test [2] the target is T2, PKC_beta1 (Homo sapiens, UniProt P05771).
T2 construct: gene PRKCB; isoform beta1
The test is described as follows: biochemical. The arrangement: Invitrogen kinase panel: Z'Lyte activity (ATP at Km) or LanthaScreen competitive ATP-site binding, percent inhibition.

Test [3] addresses Lyn (Homo sapiens, UniProt P07948). Put plainly: biochemical. The arrangement: Invitrogen kinase panel: Z'Lyte activity (ATP at Km) or LanthaScreen competitive ATP-site binding, percent inhibition.
The target in test [4] is Lck (Homo sapiens, UniProt P06239). Put plainly: biochemical. The arrangement: Invitrogen kinase panel: Z'Lyte activity (ATP at Km) or LanthaScreen competitive ATP-site binding, percent inhibition.
Test [5] has as its target Src (Homo sapiens, UniProt P12931). Put plainly: biochemical. The arrangement: Invitrogen kinase panel: Z'Lyte activity (ATP at Km) or LanthaScreen competitive ATP-site binding, percent inhibition.
Test [6] has as its target CDK1/cyclinB (Homo sapiens, UniProt P06493). Put plainly: biochemical. Also noted: Invitrogen kinase panel: Z'Lyte activity (ATP at Km) or LanthaScreen competitive ATP-site binding, percent inhibition.
The target of test [7] is JAK1 (Homo sapiens, UniProt P23458). The test is described as follows: biochemical. Also noted: Invitrogen kinase panel: Z'Lyte activity (ATP at Km) or LanthaScreen competitive ATP-site binding, percent inhibition.
Test [8] deals with TYK2 (Homo sapiens, UniProt P29597). The test is described as follows: biochemical. Also noted: Invitrogen kinase panel: Z'Lyte activity (ATP at Km) or LanthaScreen competitive ATP-site binding, percent inhibition.
The target of test [9] is RAF1(Y340D,Y341D) (Homo sapiens, UniProt P04049, Y340D/Y341D). The test is described as follows: biochemical. The arrangement: Invitrogen kinase panel: Z'Lyte activity (ATP at Km) or LanthaScreen competitive ATP-site binding, percent inhibition.
Test [10] has as its target T3, B-Raf (Homo sapiens, UniProt P15056).
T3 construct: gene BRAF
The test is described as follows: biochemical. Also noted: Invitrogen kinase panel: Z'Lyte activity (ATP at Km) or LanthaScreen competitive ATP-site binding, percent inhibition.

Test [11] concerns T4, IRE1 (endogenous, KMS-11).
T4 construct: endogenous full-length in KMS-11 cells
The test is described as follows: cells. The arrangement: XBP1s mRNA by branched DNA assay in KMS-11 cell lysates after compound treatment. To be noted: Homo sapiens, KMS-11, 4 h. As for the experimental part: 15-20k KMS-11 cells in RPMI growth media were seeded into 96-well plates and treated with compounds or DMSO control over a period of 4 h the following day. RNA levels of XBP1s and DGAT2 in KMS-11 cell lysates were measured using the QuantiGene 2.0 bDNA assay technology (Thermofisher). See Supplementary Table 4 for sequences of relevant capture probes. Data analysis was carried out against an assay background control with no cell lysate (no-RNA control). In the case of AMG-18, cells were also stimulated with thapsigargin (Tg, 100 nM) 30 min after compound addition. No Tg was used when treating cells with all other compounds. Samples were run in duplicate. To investigate whether this peculiar conformation had any role in the mechanism of activation of G-1749, we evaluated different tails to substitute the ethyl carbamate on the naphthyl moiety (Fig. 3, Supplementary Table 2). […] This is likely due to clashes with residues lining the front pocket, which in turn would force the tails to occupy the back pocket and break the salt bridge, thereby causing RNase inhibition. […] Experiments in KMS-11 cells (Fig. 3b, c, right panels) confirmed the effect of these tail modifications on IRE1 RNase activation. […] The chemical substituents tolerated by the front pocket seem to be very limited: even a minor substitution of the carbamate oxygen atom to a larger [compound left out], from ethyl carbamate to propyl amide (compound 6), or from methyl carbamate to methyl or ethyl amide (compound 4 or 5, respectively), or increasing the tail length by one atom, from ethyl to propyl carbamate (compound 11), is enough to impart a switch from activation to inhibition (Fig. 3b, c). […] RNA cleavage was measured by a kinetic fluorescence assay using an XBP1-like RNA hairpin substrate and IRE1 LKR construct (Q470-L977). Background from the no-protein control was subtracted from signal before calculating fold change. Source data are provided as a Source Data file. Data are presented as the mean for measurements from two independent experiments (n = 2). c RNA levels for IRE1 RNase product XBP1s measured by bDNA assay of lysates from KMS-11 cells treated with compounds for 4 h. Background from the no-RNA control was subtracted from signal before calculating fold change. Source data are provided as a Source Data file. Data are presented as the mean for measurements from two independent experiments (n = 2). d, e Analytical Ultracentrifugation sedimentation velocity (SV-AUC) experiments for (d), IRE1 LKR (Q470-L977) unphosphorylated and autophosphorylated and (e), IRE1 LKR unphosphorylated in the presence of slight excess G-9807 and G-1749. Calculated sedimentation coefficients for IRE1 monomer (3.1 svedbergs) and dimer (4.6 svedbergs) are highlighted by dotted lines. Source data are provided as a Source Data file.

[12] abbreviates: XBP1s mRNA increase, read-out: EC50 (KMS-11 bDNA assay, XBP1s), activators.

Like-named read-outs stand apart in the source and are kept apart here.

T3 sequence (P15056 whole entry): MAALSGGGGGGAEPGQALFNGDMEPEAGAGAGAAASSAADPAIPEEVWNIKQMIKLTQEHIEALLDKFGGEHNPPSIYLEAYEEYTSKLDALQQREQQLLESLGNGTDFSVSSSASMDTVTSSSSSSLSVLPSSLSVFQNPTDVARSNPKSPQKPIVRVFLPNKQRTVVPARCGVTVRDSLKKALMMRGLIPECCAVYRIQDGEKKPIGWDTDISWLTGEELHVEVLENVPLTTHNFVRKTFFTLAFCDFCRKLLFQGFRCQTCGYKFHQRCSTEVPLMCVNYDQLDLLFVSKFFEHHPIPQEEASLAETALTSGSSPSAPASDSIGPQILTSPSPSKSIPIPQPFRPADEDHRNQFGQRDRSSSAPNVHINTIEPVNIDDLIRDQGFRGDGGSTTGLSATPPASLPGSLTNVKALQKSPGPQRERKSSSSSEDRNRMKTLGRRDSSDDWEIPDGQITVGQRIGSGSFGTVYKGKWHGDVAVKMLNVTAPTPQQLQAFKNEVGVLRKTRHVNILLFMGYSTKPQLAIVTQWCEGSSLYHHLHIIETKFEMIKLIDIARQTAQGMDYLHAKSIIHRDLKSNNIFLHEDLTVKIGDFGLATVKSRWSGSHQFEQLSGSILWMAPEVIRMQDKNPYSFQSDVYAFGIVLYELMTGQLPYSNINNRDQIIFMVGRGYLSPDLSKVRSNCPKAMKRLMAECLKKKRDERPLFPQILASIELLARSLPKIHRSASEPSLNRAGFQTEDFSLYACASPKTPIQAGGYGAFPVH
RAF1(Y340D,Y341D), sequence (P04049 whole entry Y340D/Y341D): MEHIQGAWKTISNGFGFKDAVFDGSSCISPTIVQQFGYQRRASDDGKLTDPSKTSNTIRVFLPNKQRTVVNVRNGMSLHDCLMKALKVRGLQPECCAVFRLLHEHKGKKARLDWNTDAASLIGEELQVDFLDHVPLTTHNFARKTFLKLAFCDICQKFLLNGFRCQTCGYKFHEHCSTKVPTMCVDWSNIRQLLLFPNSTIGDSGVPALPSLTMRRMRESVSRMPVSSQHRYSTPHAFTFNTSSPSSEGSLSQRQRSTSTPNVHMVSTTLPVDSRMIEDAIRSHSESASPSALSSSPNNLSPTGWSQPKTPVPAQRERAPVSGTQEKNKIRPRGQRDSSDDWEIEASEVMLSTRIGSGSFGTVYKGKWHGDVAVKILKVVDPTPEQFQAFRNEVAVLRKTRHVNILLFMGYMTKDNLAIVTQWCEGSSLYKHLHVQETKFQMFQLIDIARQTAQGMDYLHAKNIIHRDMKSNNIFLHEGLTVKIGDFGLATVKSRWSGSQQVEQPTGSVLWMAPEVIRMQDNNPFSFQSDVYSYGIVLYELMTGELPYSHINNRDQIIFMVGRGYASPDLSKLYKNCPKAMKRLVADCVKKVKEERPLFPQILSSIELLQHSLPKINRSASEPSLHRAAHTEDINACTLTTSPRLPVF
CDK1/cyclinB, sequence (P06493 whole entry): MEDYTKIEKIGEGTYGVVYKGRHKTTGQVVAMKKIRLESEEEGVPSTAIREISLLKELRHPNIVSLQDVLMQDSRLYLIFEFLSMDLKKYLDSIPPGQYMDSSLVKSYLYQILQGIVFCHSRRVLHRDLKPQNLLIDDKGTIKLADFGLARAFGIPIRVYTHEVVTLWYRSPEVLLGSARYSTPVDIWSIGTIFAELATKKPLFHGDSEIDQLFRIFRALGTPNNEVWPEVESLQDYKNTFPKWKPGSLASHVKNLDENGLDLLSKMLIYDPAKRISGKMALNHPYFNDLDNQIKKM
CDK1/cyclinB, sequence (P14635 whole entry partner): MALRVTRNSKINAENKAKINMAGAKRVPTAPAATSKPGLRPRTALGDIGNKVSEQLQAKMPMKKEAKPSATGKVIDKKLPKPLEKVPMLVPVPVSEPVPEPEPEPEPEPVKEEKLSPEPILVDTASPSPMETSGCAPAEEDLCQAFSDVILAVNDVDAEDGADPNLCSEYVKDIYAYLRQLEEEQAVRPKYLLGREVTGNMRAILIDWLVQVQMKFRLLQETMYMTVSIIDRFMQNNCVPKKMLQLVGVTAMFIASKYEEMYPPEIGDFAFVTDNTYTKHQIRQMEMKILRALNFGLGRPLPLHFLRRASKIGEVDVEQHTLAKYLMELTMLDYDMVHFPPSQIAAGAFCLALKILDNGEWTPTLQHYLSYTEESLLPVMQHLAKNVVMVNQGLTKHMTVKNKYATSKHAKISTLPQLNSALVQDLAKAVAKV
T2 sequence (P05771 whole entry, canonical isoform): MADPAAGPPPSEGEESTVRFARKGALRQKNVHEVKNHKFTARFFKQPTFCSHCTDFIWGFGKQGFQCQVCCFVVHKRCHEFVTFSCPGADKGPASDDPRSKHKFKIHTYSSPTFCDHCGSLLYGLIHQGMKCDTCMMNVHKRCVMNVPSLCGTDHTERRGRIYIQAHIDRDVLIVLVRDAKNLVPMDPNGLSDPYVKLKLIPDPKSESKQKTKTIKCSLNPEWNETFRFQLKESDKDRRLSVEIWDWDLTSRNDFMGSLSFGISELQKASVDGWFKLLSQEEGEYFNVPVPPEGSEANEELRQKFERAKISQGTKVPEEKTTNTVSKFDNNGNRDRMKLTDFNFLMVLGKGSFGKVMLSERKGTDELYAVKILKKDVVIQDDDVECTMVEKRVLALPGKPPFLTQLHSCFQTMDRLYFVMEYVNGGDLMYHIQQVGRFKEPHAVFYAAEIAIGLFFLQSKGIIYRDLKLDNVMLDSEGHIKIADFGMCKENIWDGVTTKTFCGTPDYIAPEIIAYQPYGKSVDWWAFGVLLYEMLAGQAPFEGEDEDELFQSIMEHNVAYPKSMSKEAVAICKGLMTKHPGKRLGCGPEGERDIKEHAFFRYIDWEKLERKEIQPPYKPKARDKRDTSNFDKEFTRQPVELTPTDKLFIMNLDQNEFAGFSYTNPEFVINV
TYK2, sequence (P29597 whole entry): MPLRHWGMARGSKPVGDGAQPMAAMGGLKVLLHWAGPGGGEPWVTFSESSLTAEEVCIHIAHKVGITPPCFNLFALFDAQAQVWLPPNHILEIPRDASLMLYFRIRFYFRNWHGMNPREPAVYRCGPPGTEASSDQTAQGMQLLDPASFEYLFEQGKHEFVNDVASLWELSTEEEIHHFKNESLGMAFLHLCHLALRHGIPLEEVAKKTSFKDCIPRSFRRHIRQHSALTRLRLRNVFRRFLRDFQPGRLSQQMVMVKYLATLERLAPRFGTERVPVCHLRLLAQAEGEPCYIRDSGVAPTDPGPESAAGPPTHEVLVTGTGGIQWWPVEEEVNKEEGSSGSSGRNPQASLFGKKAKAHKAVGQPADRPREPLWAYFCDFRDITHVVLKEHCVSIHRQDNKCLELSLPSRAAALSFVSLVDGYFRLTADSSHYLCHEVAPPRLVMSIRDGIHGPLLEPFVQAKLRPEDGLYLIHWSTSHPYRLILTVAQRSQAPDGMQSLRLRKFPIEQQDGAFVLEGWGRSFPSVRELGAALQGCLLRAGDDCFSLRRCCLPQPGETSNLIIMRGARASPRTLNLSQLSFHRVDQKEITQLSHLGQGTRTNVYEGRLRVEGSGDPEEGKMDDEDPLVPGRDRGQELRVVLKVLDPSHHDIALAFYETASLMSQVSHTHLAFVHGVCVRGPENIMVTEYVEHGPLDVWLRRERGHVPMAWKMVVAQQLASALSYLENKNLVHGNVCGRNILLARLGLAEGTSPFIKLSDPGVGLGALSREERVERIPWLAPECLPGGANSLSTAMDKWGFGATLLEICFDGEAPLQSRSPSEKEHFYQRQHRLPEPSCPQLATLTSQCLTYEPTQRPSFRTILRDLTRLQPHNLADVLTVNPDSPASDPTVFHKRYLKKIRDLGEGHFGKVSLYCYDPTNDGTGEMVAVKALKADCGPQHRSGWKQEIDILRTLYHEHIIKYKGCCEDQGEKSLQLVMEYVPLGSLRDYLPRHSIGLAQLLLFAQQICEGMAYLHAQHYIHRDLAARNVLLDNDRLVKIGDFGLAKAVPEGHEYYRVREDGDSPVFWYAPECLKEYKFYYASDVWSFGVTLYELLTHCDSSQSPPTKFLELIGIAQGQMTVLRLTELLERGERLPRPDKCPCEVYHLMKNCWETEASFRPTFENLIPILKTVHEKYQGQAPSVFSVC
Src, sequence (P12931 whole entry): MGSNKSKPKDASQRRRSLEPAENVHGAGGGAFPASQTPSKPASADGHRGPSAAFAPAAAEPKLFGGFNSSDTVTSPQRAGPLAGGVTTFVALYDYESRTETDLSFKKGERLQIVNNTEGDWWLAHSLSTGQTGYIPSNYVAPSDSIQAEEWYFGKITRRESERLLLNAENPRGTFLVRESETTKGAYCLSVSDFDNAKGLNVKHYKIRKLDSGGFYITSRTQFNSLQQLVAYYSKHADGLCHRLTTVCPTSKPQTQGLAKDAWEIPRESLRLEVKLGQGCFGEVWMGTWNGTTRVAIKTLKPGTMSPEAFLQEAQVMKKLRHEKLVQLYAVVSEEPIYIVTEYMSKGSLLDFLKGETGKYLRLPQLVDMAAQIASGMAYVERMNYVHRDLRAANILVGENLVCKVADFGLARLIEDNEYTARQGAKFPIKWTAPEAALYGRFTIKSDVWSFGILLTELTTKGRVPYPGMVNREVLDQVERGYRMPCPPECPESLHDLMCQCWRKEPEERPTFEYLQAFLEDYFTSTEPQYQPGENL
T1 sequence (Q9H3Y6 whole entry): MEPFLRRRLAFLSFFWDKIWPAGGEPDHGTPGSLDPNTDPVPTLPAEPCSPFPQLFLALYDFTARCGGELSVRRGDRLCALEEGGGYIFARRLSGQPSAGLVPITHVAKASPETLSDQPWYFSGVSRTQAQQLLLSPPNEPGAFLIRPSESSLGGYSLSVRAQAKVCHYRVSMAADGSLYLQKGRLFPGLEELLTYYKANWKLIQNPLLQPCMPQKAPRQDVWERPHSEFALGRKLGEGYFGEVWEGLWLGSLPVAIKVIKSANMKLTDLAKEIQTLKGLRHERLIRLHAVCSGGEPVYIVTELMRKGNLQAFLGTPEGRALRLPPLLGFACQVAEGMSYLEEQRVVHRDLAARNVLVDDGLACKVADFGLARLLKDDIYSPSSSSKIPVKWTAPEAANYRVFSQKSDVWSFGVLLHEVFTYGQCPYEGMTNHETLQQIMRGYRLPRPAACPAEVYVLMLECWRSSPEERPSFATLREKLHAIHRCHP

As for `CC#CC(=O)Nc1cccc2c(Oc3ncccc3-c3ccnc(N[C@H]4CCCNC4)n3)c(C)ccc12` [G-7658], the inhibition at 1 µM is 3% in test [1]; 5.5% in test [2]; 13% in [3]; -28.5% in test [4]; 22.5% in test [5]; 7.5% in test [6]. For the same molecule, the inhibition at 1 µM is 0.5% in [7], -2% in test [8], 1% in test [9] and 5.5% in test [10]. For the same molecule, the half-maximal effective concentration (EC50) in test [11] (setting [12]) was found to be 223 ± 33 nM.
With `CCOC(=O)Nc1cccc2c(Oc3ncccc3-c3ccnc(N[C@H]4CCCNC4)n3)c(C)ccc12` [G-1749], the inhibition at 1 µM is -4.5% in test [1]; 5.5% in test [2]; 6.5% in test [3]; 13.5% in test [4]; 28% in test [5]; 6.5% in test [6]. Moreover, the inhibition at 1 µM in [7] was -4%; in test [8], -3%; in test [9], 24.5%; in test [10], 9.5%. Moreover, in test [11] (setting [12]), the EC50 came out at 1310 ± 168 nM.
`Cc1ccc2c(NS(=O)(=O)c3ccccc3Cl)cccc2c1Oc1ncccc1-c1ccnc(N[C@H]2CCCNC2)n1` [AMG-18]: the EC50 in test [11] (100 nM thapsigargin stimulation, XBP1s mRNA decrease, read-out: EC50 (KMS-11 bDNA assay, XBP1s), inhibitors) was found to be 193 ± 36 nM.
For the molecule `O=c1cc(-c2n[nH]c3ncc(-c4c(F)cccc4F)cc23)nc(N2CCC(O)CC2)[nH]1` [G-9807], the inhibition at 1 µM in [1] stood at 67.6%; in test [2], 66.7%; in test [3] it was 87.1%; in test [4], 87.2%; in test [5], 52.5%; in test [6], 96.5%. The inhibition at 1 µM in test [7] was 68.7%; in test [8], 84.5%; in test [9], 43.3%; in test [10] it was 81.2%. In addition, the EC50 in test [11] (setting [12]) turned out to be 1770 ± 691 nM.

As a reminder, the inhibition is the relative decrease from the control value, in per cent. The EC50 is the concentration at which the effect is half-maximal.
